Data as given in patent US20100204135A1, “USE OF LVV-HEMORPHIN-6 AND OPTIONALLY AF12198 AS THERAPEUTIC AGENT(S)” (priority 2007, published 2010).
Where no end group is shown, it is not given here.

Tests used:
Interferon-γ (IFN-γ) = assay: Th1/Th2 cytokine profiling assay, IFN-γ; assay type: cell-based, mouse; details: 10 micrograms per ml; Ovalbumin-restimulated Balb/c spleen cells, 72 hours
Experimental: (§1) The Balb/c mice (originated in 1923, it is a popular strain and is used in many different research disciplines. Also classified as an inbred from the production of 20 size) were immunized on Days 1, 15, and 29 with Ovalbumin (Ovalbumin is the main protein found in egg white, commonly used to stimulate an immunological reaction in test animals) in PBS (5 micrograms/injection). On day 50, spleens of the mice were harvested (3 weeks after last boost with Ovalbumin). Cells were cultured (2×10^5/well in triplicate) and incubated with culture medium or test peptides—10 micrograms per ml—for 30 min. Thereafter, additional Ovalbumin was added to the cells at 10 micrograms/ml for in vitro restimulation of the cells. 72 hours later, cell supernatants were harvested and assayed using the Becton Dickinson Mouse Th1/Th2 Cytokine CBA Kit. This kit can be used to measure Interleukin-2 (IL-2), Interleukin-4 (IL-4), Interleukin-5 (IL-5), Interferon-γ (IFN-γ), and Tumor Necrosis Factor-a (TNF-a) protein levels in a single sample. The kit performance has been optimized for analysis of physiologically relevant concentrations (μg/ml levels) of specific cytokine proteins in tissue culture supernatants and serum samples.

Interleukin-4 (IL-4) = assay: Th1/Th2 cytokine profiling assay, IL-4; assay type: cell-based, mouse; details: 10 micrograms per ml; Ovalbumin-restimulated Balb/c spleen cells, 72 hours
Experimental: as §1

[1] = tested on: hepatitis B virus (HBV) ayw strain; assay: HBV experimental assay system, HepG2-2.2.15, TaqMan PCR of secreted HBV DNA; assay type: cell-based; details: 10 micrograms per ml; HepG2-2.2.15, six days, HBV DNA in supernatant
[2] = tested on: Primary Human endothelial cells (HUVEC); assay: Endothelial cell migration assay; assay type: cell-based; details: 10 micrograms per ml, 22 hours
Experimental: Thereafter, designated concentration of testing peptides—10 micrograms per ml—was added in duplicate wells.

HCMV strain AD169 = assay: HCMV plaque formation assay in MRC-5 cells; assay type: cell-based; details: for inhibition of HCMV plaque formation as compared to the virus control experiment: 10 micrograms per ml, 7-10 days
HUVEC = assay: Endothelial tube formation assay; assay type: cell-based, human; details: 10 micrograms per ml, 20 hours
Source text: Positive control was vehicle only.

Interleukin-2 (IL-2) = assay: Th1/Th2 cytokine profiling assay, IL-2; assay type: cell-based, mouse; details: 10 micrograms per ml; Ovalbumin-restimulated Balb/c spleen cells, 72 hours
Experimental: as §1

Interleukin-5 (IL-5) = assay: Th1/Th2 cytokine profiling assay, IL-5; assay type: cell-based, mouse; details: 10 micrograms per ml; Ovalbumin-restimulated Balb/c spleen cells, 72 hours
Experimental: as §1

Human A549 cells = assay: Apoptosis prevention assay (Annexin-5, C2 ceramide); assay type: cell-based; details: 10 micrograms per ml; A549 pretreated 30 min, then C2 ceramide
[3] = tested on: Tumor Necrosis Factor-a (TNF-a); assay: Th1/Th2 cytokine profiling assay, TNF-alpha; assay type: cell-based, mouse; details: 10 micrograms per ml; Ovalbumin-restimulated Balb/c spleen cells, 72 hours
Experimental: as §1

How did the “decrease of the production of IFN-γ in murine spleen cells” value (Interferon-γ (IFN-γ)) turn out when “Leu-Val-Val-Tyr-Pro-Trp-Thr-Gln-Arg-OH (LVVYPWTQR-OH) [Peptide 1]” was run?
Its value is “did not significantly change”.

What about the “change of the production of IL-4 in murine spleen cells” value (Interleukin-4 (IL-4)) of the same compound?
The value was “did not significantly change”.

And the “inhibition of HBV replication as compared to the virus control infection” value [1]?
The value was 24.3%.

What about the “inhibition of the migration of human endothelial cells” value [2] of the same compound?
The value was 4%.

What about the “inhibition of HCMV plaque formation as compared to the virus control experiment” value (HCMV strain AD169) of the same compound?
Its value is “did not inhibit”.

What about the “increase of the tube formation of human endothelial cells” value (HUVEC) of the same compound?
The value was 2%.

What about the “increase of the production of IL-2 in murine spleen cells” value (Interleukin-2 (IL-2)) of the same compound?
Its value is 54.3%.

What about the “decrease of the production of IL-5 in murine spleen cells” value (Interleukin-5 (IL-5)) of the same compound?
Its value is 33%.

What about the “effect on the ceramide-induced apoptosis on human lung cells” value (Human A549 cells) of the same compound?
The value was “did not reduce”.

What about the “change of the production of TNF-alpha in murine spleen cells” value [3] of the same compound?
The value was “did not significantly change”.

How did the “decrease of the production of IFN-γ in murine spleen cells” value (Interferon-γ (IFN-γ)) turn out when “Phe-Glu-Trp-Thr-Pro-Gly-Tyr-Trp-Gln-Pro-Tyr-Ala-Leu-Pro-Leu-OH (FEWTPGYWQPYALPL-OH) [Peptide 2]” was run?
The value was 37.5%.

And the “change of the production of IL-4 in murine spleen cells” value (Interleukin-4 (IL-4))?
Its value is “did not significantly change”.

What about the “inhibition of HBV replication as compared to the virus control infection” value [1] of the same compound?
The value was 26.3%.

And the “inhibition of HCMV plaque formation as compared to the virus control experiment” value (HCMV strain AD169)?
Its value is “did not inhibit”.

And the “increase of the tube formation of human endothelial cells” value (HUVEC)?
The value was 4%.

And the “increase of the production of IL-2 in murine spleen cells” value (Interleukin-2 (IL-2))?
Its value is 68.1%.

What about the “decrease of the production of IL-5 in murine spleen cells” value (Interleukin-5 (IL-5)) of the same compound?
Its value is 38.8%.

What about the “effect on the ceramide-induced apoptosis on human lung cells” value (Human A549 cells) of the same compound?
Its value is 28.6%.

And the “change of the production of TNF-alpha in murine spleen cells” value [3]?
Its value is “did not significantly change”.

With `Nc1nc(O)c2ncn(COC(CO)CO)c2n1` [Ganciclovir, reference compound] as the compound, how does the “antiviral activity of positive control compound” value (HCMV strain AD169; positive control, HCMV AD169) read?
The value was “expected levels of antiviral activity”.
